This assay concerns the target T1, SSTR4 (Homo sapiens, UniProt P31391).
T1 construct: host or cells: CHO-K1
Briefly: Inhibition of forskolin stimulated cAMP in CHO-K1 cells overexpressing SSTR4. It is filed as cell-based. The settings on record: read-out: SSTR4 Activity pEC50 (converted). How it is done: Inhibition of Forskolin Stimulated cAMP in Cells Overexpressing SSTR4
This cell-based assay measures the ability of compounds to inhibit forskolin stimulated cAMP in CHO-K1 cells overexpressing SSTR4. CHO-K1 cells overexpressing SSTR4 (CHO-SSTR4) are purchased from DiscoveRx (product code 95-0059C2). The CHO-SSTR4 cells are maintained in F12K media with 10% Fetal Bovine Serum (Hyclone), 1% Pen/Strep (Life Technologies), and 800 μg/mL G418 (Life Technologies). To perform the assay, 3000 cells are plated per well in white 384-well plate (Corning 3570) in 50 μL complete media and the cells are allowed to attach for 16 hours in a 37° C., 5% CO2 incubator. The next day, the culture media is removed from the cells and the cells are washed (added then removed) with Krebs Ringer Buffer (ZenBio, KRB-1000 mL). Test compounds are suspended in DMSO and diluted in stimulation buffer: Krebs Ringer Buffer plus 0.5% BSA (Roche), 300 μM IBMX (Sigma), and 350 nM forskolin (Sigma). The cells are incubated in 10 μL compound/stimulation buffer for 30 minutes at room temperature. Cellular cAMP levels are detected with a HTRF LANCE Ultra cAMP kit (Perkin Elmer, catalog number TRF0264).
The assay is performed in accordance with the manufacturer's instructions. Five μL of diluted Eu-W8044 labeled streptavidin (dilution: 1:50 in cAMP Detection Buffer) is added to each well. Then 5 μL of diluted biotin cAMP (dilution: 1:150 in cAMP Detection Buffer) is added to each well. The plates are covered and allowed to incubate for 60 minutes at room temperature on a shaker. HTRF (665 nm/615 nm) is read on a Perkin Elmer ENVISION plate reader. The pEC50 values are generated using Activity Base for Screening Data Management.
T1 sequence (P31391 whole entry): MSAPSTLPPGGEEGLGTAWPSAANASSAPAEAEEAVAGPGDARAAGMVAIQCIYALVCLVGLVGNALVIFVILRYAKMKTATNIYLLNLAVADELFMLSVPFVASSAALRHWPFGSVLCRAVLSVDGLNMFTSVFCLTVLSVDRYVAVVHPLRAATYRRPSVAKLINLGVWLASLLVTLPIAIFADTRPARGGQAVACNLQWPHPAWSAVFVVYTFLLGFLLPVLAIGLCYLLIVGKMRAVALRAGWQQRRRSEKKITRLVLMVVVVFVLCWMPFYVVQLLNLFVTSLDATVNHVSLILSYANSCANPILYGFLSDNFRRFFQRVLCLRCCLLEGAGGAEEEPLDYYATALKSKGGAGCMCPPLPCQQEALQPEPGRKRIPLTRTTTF
Regarding `CC(C)(COc1ncccc1C(F)(F)F)NC(=O)C[C@H]1CCCN1CCF` [Example 58, (R)-2-(1-(2-fluoroethyl)pyrrolidin-2-yl)-N-(2-methyl-1-((3-(trifluoromethyl)pyridin-2-yl)oxy)propan-2-yl)acetamide], the EC50 is 39.8 nM.

With `CC(C)(COc1ncccc1C(F)(F)F)NC(=O)C[C@H]1CCCN1C1CC1` [Example 59, (R)-2-(1-cyclopropylpyrrolidin-2-yl)-N-(2-methyl-1-((3-(trifluoromethyl)pyridin-2-yl)oxy)propan-2-yl)acetamide], the EC50 was 15.8 nM.

For the molecule `C[C@H](NC(=O)CC1CCCCN1C)c1ccc(F)cc1` (stereo partly drawn) [Example 61, N-((S)-1-(4-fluorophenyl)ethyl)-2-(1-methylpiperidin-2-yl)acetamide], the EC50 is 158 nM.

Take `CCN1CCCC1CC(=O)NC1(COc2ncccc2C)CCC1` (centres unmarked) [Example 64, 2-(1-ethylpyrrolidin-2-yl)-N-(1-(((3-methylpyridin-2-yl)oxy)methyl)cyclobutyl)acetamide]: the EC50 is 100 nM.

Consider `CCN1CCCC1CC(=O)NC1(COc2ncccc2C)CCCC1` (centres unmarked) [Example 65, 2-(1-ethylpyrrolidin-2-yl)-N-(1-(((3-methylpyridin-2-yl)oxy)methyl)cyclopentyl)acetamide], for which the EC50 is 251 nM.

`Cc1cccnc1OCC(C)(C)NC(=O)CC1CCC(C)N1C` (centres unmarked) [Example 68, 2-(1,5-dimethylpyrrolidin-2-yl)-N-(2-methyl-1-((3-methylpyridin-2-yl)oxy)propan-2-yl)acetamide]: the EC50 is 25.1 nM.

As to `Cc1cccnc1OCC(C)(C)NC(=O)CC1CCCCN1C` (centres unmarked) [Example 69, N-(2-methyl-1-((3-methylpyridin-2-yl)oxy)propan-2-yl)-2-(1-methylpiperidin-2-yl)acetamide], the EC50 was 25.1 nM.

For `CN1CCC[C@H]1CC(=O)NC(C)(C)COc1ncccc1OC(F)(F)F` [Example 72, (S)-N-(2-methyl-1-((3-(trifluoromethoxy)pyridin-2-yl)oxy)propan-2-yl)-2-(1-methylpyrrolidin-2-yl)acetamide], the EC50 is 20 nM.

With `CN1CCC[C@H]1CC(=O)NC(C)(C)COc1ncccc1C1CC1` [Example 73, (S)-N-(1-((3-cyclopropylpyridin-2-yl)oxy)-2-methylpropan-2-yl)-2-(1-methylpyrrolidin-2-yl)acetamide], the EC50 was 39.8 nM.

For the molecule `COc1ccccc1CC1(NC(=O)CC2CCCCN2C)CC1` (centres unmarked) [Example 74, N-(1-(2-methoxybenzyl)cyclopropyl)-2-(1-methylpiperidin-2-yl)acetamide], the EC50 is 31.6 nM.

As for `COc1ncccc1CC1(NC(=O)CC2CCCCN2C)CC1` (centres unmarked) [Example 79, N-(1-((2-methoxypyridin-3-yl)methyl)cyclopropyl)-2-(1-methylpiperidin-2-yl)acetamide], the EC50 is 398 nM.

`Cc1cccc(CC2(NC(=O)C[C@@H]3CCCN3C)CC2)c1` [Example 81, (S)-N-(1-(3-methylbenzyl)cyclopropyl)-2-(1-methylpyrrolidin-2-yl)acetamide]: the EC50 is 398 nM.

Consider `CN1CCC[C@H]1CC(=O)NC(C)(C)c1cccc(F)c1F` [Example 82, (S)-N-(2-(2,3-difluorophenyl)propan-2-yl)-2-(1-methylpyrrolidin-2-yl)acetamide], for which the EC50 is 316 nM.

Regarding `CN1CCC[C@H]1CC(=O)NC(C)(C)c1cccc(Cl)c1F` [Example 83, (S)-N-(2-(3-chloro-2-fluorophenyl)propan-2-yl)-2-(1-methylpyrrolidin-2-yl)acetamide], the EC50 was 251 nM.

For the molecule `CN1CCC[C@@H]1CC(=O)NC(C)(C)COc1ncccc1C(F)F` [Example 84, (R)-N-(1-((3-(difluoromethyl)pyridin-2-yl)oxy)-2-methylpropan-2-yl)-2-(1-methylpyrrolidin-2-yl)acetamide], the EC50 is 100 nM.

Consider `CN1CCC[C@H]1CC(=O)NC(C)(C)COc1ncccc1C(F)F` [Example 85], for which the EC50 is 200 nM.

For the molecule `Cc1cccc(C(C)(C)NC(=O)C[C@@H]2CCCN2C)c1F` [Example 86, (S)-N-(2-(2-fluoro-3-methylphenyl)propan-2-yl)-2-(1-methylpyrrolidin-2-yl)acetamide], the EC50 is 251 nM.

For the molecule `Cc1cccc(C(C)(C)NC(=O)C[C@H]2CCCN2C)c1F` [Example 87, (R)-N-(2-(2-fluoro-3-methylphenyl)propan-2-yl)-2-(1-methylpyrrolidin-2-yl)acetamide], the EC50 is 316 nM.

`Cc1c(F)cccc1C(C)(C)NC(=O)C[C@@H]1CCCN1C` [Example 89, (S)-N-(2-(3-fluoro-2-methylphenyl)propan-2-yl)-2-(1-methylpyrrolidin-2-yl)acetamide]: the EC50 was 126 nM.

For the molecule `Cc1c(F)cccc1C(C)(C)NC(=O)C[C@H]1CCCN1C` [Example 90, (R)-N-(2-(3-fluoro-2-methylphenyl)propan-2-yl)-2-(1-methylpyrrolidin-2-yl)acetamide], the EC50 is 63.1 nM.

In the case of `CN1CCC[C@H]1CC(=O)NC(C)(C)c1cccc(F)c1Cl` [Example 93, (S)-N-(2-(2-chloro-3-fluorophenyl)propan-2-yl)-2-(1-methylpyrrolidin-2-yl)acetamide], the EC50 is 63.1 nM.

On to `COc1cc(F)ccc1[C@H](C)NC(=O)C[C@@H]1CCCN1C` [Example 95, N-((S)-1-(4-fluoro-2-methoxyphenyl)ethyl)-2-((S)-1-methylpyrrolidin-2-yl)acetamide], for which the EC50 was 794 nM.

As for `CN1CCC(F)(F)C1CC(=O)NC(C)(C)c1nccc2ccccc12` (centres unmarked) [Example 97, 2-(3,3-difluoro-1-methylpyrrolidin-2-yl)-N-(2-(isoquinolin-1-yl)propan-2-yl)acetamide], the EC50 was 1000 nM.

`Cc1cccc2c(C(C)(C)NC(=O)CC3N(C)CCC3(F)F)nccc12` (centres unmarked) [Example 98, 2-(3,3-difluoro-1-methylpyrrolidin-2-yl)-N-(2-(5-methylisoquinolin-1-yl)propan-2-yl)acetamide]: the EC50 was 158 nM.

In the case of `CN1CCC(F)(F)C1CC(=O)NC(C)(C)c1nccc2occc12` (centres unmarked) [Example 99, 2-(3,3-difluoro-1-methylpyrrolidin-2-yl)-N-(2-(furo[3,2-c]pyridin-4-yl)propan-2-yl)acetamide], the EC50 is 3980 nM.

On to `Cc1ccnc(OCC(C)(C)NC(=O)C[C@@H]2CCCN2C)c1` [Example 102, (S)-N-(2-methyl-1-((4-methylpyridin-2-yl)oxy)propan-2-yl)-2-(1-methylpyrrolidin-2-yl)acetamide], for which the EC50 is 631 nM.

Take `Cc1ccc(OCC(C)(C)NC(=O)C[C@@H]2CCCN2C)nc1` [Example 103, (S)-N-(2-methyl-1-((5-methylpyridin-2-yl)oxy)propan-2-yl)-2-(1-methylpyrrolidin-2-yl)acetamide]: the EC50 was 501 nM.

On to `CN1CCC[C@H]1CC(=O)NC(C)(C)COc1cc(Cl)c(F)cn1` [Example 105, (S)-N-(1-((4-chloro-5-fluoropyridin-2-yl)oxy)-2-methylpropan-2-yl)-2-(1-methylpyrrolidin-2-yl)acetamide], for which the EC50 was 794 nM.

Consider `CN1CCC[C@@H]1CC(=O)NC(C)(C)COc1ncccc1OC(F)(F)F` [Example 106, (R)-N-(2-methyl-1-((3-(trifluoromethoxy)pyridin-2-yl)oxy)propan-2-yl)-2-(1-methylpyrrolidin-2-yl)acetamide], for which the EC50 is 20 nM.

The values above are taken from patent US20230150981A1, “N-HETEROARYLALKYL-2-(HETEROCYCLYL AND HETEROCYCLYLMETHYL) ACETAMIDE DERIVATIVES AS SSTR4 AGONISTS” (Takeda Pharmaceutical Compnay Limited, priority 2020, published 2023).
